Measurements from patent US20060069132A1, “Azolecarboxamide herbicides” (priority 2004, published 2006).

Assays:
Assay in all cases: Test E pre-/postemergence herbicide test
Canada horseweed = type: in vivo, Erigeron Canadensis
How it was run: (§1)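 Postemergence treatment targeted plants at the 1- to 4-leaf stage (2–18 cm), alongside preemergence treatment of planted seed; both used a non-phytotoxic solvent mixture with surfactant. Visual ratings, 0 = no effect to 100 = complete control, were taken 12 to 14 days later.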

pitted morningglory = type: in vivo, Ipomoea lacunosa
How it was run: as §1

goosegrass = type: in vivo, Eleusine indica
How it was run: as §1

common groundsel = type: in vivo, Senecio vulgaris
How it was run: as §1

guineagrass = type: in vivo, Panicum maximum
How it was run: as §1

broadleaf signalgrass = type: in vivo, Brachiaria platyphylla
How it was run: as §1

itchgrass = type: in vivo, Rottboellia cochinchinensis
How it was run: as §1

barnyardgrass = type: in vivo, Echinochloa crus-galli
How it was run: as §1

common ragweed = type: in vivo, Ambrosia elatior
How it was run: as §1

mustard = type: in vivo, Brassica nigra
How it was run: as §1

bermudagrass = type: in vivo, Cynodon dactylon
How it was run: as §1

field bindweed = type: in vivo, Convolvulus arvensis
How it was run: as §1

[1] = Postemergence, 500 g ai/ha, scale 0 to 100
[2] = Postemergence, 250 g ai/ha, scale 0 to 100
[3] = Preemergence, 62 g ai/ha, scale 0 to 100
[4] = Preemergence, 125 g ai/ha, scale 0 to 100
[5] = Preemergence, 250 g ai/ha, scale 0 (no effect) to 100 (complete control)
[6] = Preemergence, 500 g ai/ha, scale 0 (no effect) to 100 (complete control)
[7] = postemergence, 125 g ai/ha, scale 0 to 100
[8] = postemergence, 62 g ai/ha, scale 0 to 100

CCNC(=O)c1ccc(F)c(NC(=O)c2cn(C(C)(C)C)nc2CC)c1 [Compound 193]
Plant response rating, Horseweed (Canada horseweed; [1]): 90
Plant response rating, Horseweed (Canada horseweed; [2]): 70
Plant response rating, Horseweed (Canada horseweed; [3]): 80
Plant response rating, Horseweed (Canada horseweed; [4]): 100
Plant response rating, Horseweed (Canada horseweed; [5]): 100
Plant response rating, Horseweed (Canada horseweed; [6]): 100
Plant response rating, Horseweed (Canada horseweed; [7]): 50
Plant response rating, Horseweed (Canada horseweed; [8]): 50
Plant response rating, Morningglory (pitted morningglory; [1]): 75
Plant response rating, Morningglory (pitted morningglory; [2]): 60
Plant response rating, Morningglory (pitted morningglory; [3]): 0
Plant response rating, Morningglory (pitted morningglory; [4]): 20
Plant response rating, Morningglory (pitted morningglory; [5]): 50
Plant response rating, Morningglory (pitted morningglory; [6]): 70
Plant response rating, Morningglory (pitted morningglory; [7]): 60
Plant response rating, Morningglory (pitted morningglory; [8]): 30
Plant response rating, Goosegrass (goosegrass; [1]): 85
Plant response rating, Goosegrass (goosegrass; [2]): 80
Plant response rating, Goosegrass (goosegrass; [3]): 30
Plant response rating, Goosegrass (goosegrass; [4]): 80
Plant response rating, Goosegrass (goosegrass; [5]): 90
Plant response rating, Goosegrass (goosegrass; [6]): 95
Plant response rating, Goosegrass (goosegrass; [7]): 70
Plant response rating, Goosegrass (goosegrass; [8]): 20
Plant response rating, Groundsel (common groundsel; [1]): 100
Plant response rating, Groundsel (common groundsel; [2]): 70
Plant response rating, Groundsel (common groundsel; [3]): 20
Plant response rating, Groundsel (common groundsel; [4]): 100
Plant response rating, Groundsel (common groundsel; [5]): 100
Plant response rating, Groundsel (common groundsel; [6]): 100
Plant response rating, Groundsel (common groundsel; [7]): 40
Plant response rating, Groundsel (common groundsel; [8]): 20
Plant response rating, Guineagrass (guineagrass; [1]): 100
Plant response rating, Guineagrass (guineagrass; [2]): 70
Plant response rating, Guineagrass (guineagrass; [3]): 60
Plant response rating, Guineagrass (guineagrass; [4]): 70
Plant response rating, Guineagrass (guineagrass; [5]): 100
Plant response rating, Guineagrass (guineagrass; [6]): 100
Plant response rating, Guineagrass (guineagrass; [7]): 60
Plant response rating, Guineagrass (guineagrass; [8]): 20
Plant response rating, Signalgrass (broadleaf signalgrass; [1]): 80
Plant response rating, Signalgrass (broadleaf signalgrass; [2]): 75
Plant response rating, Signalgrass (broadleaf signalgrass; [3]): 10
Plant response rating, Signalgrass (broadleaf signalgrass; [4]): 60
Plant response rating, Signalgrass (broadleaf signalgrass; [5]): 70
Plant response rating, Signalgrass (broadleaf signalgrass; [6]): 95
Plant response rating, Signalgrass (broadleaf signalgrass; [7]): 50
Plant response rating, Signalgrass (broadleaf signalgrass; [8]): 10
Plant response rating, Itchgrass (itchgrass; [1]): 75
Plant response rating, Itchgrass (itchgrass; [2]): 60
Plant response rating, Itchgrass (itchgrass; [3]): 20
Plant response rating, Itchgrass (itchgrass; [4]): 70
Plant response rating, Itchgrass (itchgrass; [5]): 80
Plant response rating, Itchgrass (itchgrass; [6]): 100
Plant response rating, Itchgrass (itchgrass; [7]): 60
Plant response rating, Itchgrass (itchgrass; [8]): 30
Plant response rating, Barnyardgrass (barnyardgrass; [1]): 90
Plant response rating, Barnyardgrass (barnyardgrass; [2]): 80
Plant response rating, Barnyardgrass (barnyardgrass; [3]): 20
Plant response rating, Barnyardgrass (barnyardgrass; [4]): 75
Plant response rating, Barnyardgrass (barnyardgrass; [5]): 85
Plant response rating, Barnyardgrass (barnyardgrass; [6]): 95
Plant response rating, Barnyardgrass (barnyardgrass; [7]): 75
Plant response rating, Barnyardgrass (barnyardgrass; [8]): 10
Plant response rating, Ragweed (common ragweed; [1]): 75
Plant response rating, Ragweed (common ragweed; [2]): 70
Plant response rating, Ragweed (common ragweed; [3]): 50
Plant response rating, Ragweed (common ragweed; [4]): 50
Plant response rating, Ragweed (common ragweed; [5]): 80
Plant response rating, Ragweed (common ragweed; [6]): 95
Plant response rating, Ragweed (common ragweed; [7]): 30
Plant response rating, Ragweed (common ragweed; [8]): 10
Plant response rating, Black Mustard (mustard; [1]): 100
Plant response rating, Black Mustard (mustard; [2]): 95
Plant response rating, Black Mustard (mustard; [3]): 80
Plant response rating, Black Mustard (mustard; [4]): 100
Plant response rating, Black Mustard (mustard; [5]): 100
Plant response rating, Black Mustard (mustard; [6]): 100
Plant response rating, Black Mustard (mustard; [7]): 95
Plant response rating, Black Mustard (mustard; [8]): 60
Plant response rating, Bermudagrass (bermudagrass; [1]): 95
Plant response rating, Bermudagrass (bermudagrass; [2]): 90
Plant response rating, Bermudagrass (bermudagrass; [3]): 85
Plant response rating, Bermudagrass (bermudagrass; [4]): 100
Plant response rating, Bermudagrass (bermudagrass; [5]): 100
Plant response rating, Bermudagrass (bermudagrass; [6]): 100
Plant response rating, Bermudagrass (bermudagrass; [7]): 90
Plant response rating, Bermudagrass (bermudagrass; [8]): 60
Plant response rating, Bindweed, Field (field bindweed; [1]): 50
Plant response rating, Bindweed, Field (field bindweed; [2]): 50
Plant response rating, Bindweed, Field (field bindweed; [3]): 50
Plant response rating, Bindweed, Field (field bindweed; [4]): 50
Plant response rating, Bindweed, Field (field bindweed; [5]): 80
Plant response rating, Bindweed, Field (field bindweed; [6]): 85
Plant response rating, Bindweed, Field (field bindweed; [8]): 20

CCc1nn(C(C)C)nc1C(=O)Nc1cccc(C(=O)N2CCCCC2)c1 [Compound 385]
Plant response rating, Horseweed (Canada horseweed; [3]): 0
Plant response rating, Horseweed (Canada horseweed; [5]): 0
Plant response rating, Morningglory (pitted morningglory; [3]): 10
Plant response rating, Morningglory (pitted morningglory; [4]): 10
Plant response rating, Morningglory (pitted morningglory; [5]): 10
Plant response rating, Goosegrass (goosegrass; [3]): 20
Plant response rating, Goosegrass (goosegrass; [4]): 20
Plant response rating, Goosegrass (goosegrass; [5]): 50
Plant response rating, Groundsel (common groundsel; [3]): 0
Plant response rating, Groundsel (common groundsel; [4]): 0
Plant response rating, Groundsel (common groundsel; [5]): 60
Plant response rating, Guineagrass (guineagrass; [4]): 60
Plant response rating, Guineagrass (guineagrass; [5]): 100
Plant response rating, Signalgrass (broadleaf signalgrass; [3]): 10
Plant response rating, Signalgrass (broadleaf signalgrass; [4]): 20
Plant response rating, Signalgrass (broadleaf signalgrass; [5]): 20
Plant response rating, Itchgrass (itchgrass; [3]): 20
Plant response rating, Itchgrass (itchgrass; [4]): 20
Plant response rating, Itchgrass (itchgrass; [5]): 20
Plant response rating, Barnyardgrass (barnyardgrass; [3]): 20
Plant response rating, Barnyardgrass (barnyardgrass; [4]): 50
Plant response rating, Barnyardgrass (barnyardgrass; [5]): 70
Plant response rating, Ragweed (common ragweed; [3]): 0
Plant response rating, Ragweed (common ragweed; [4]): 0
Plant response rating, Ragweed (common ragweed; [5]): 0
Plant response rating, Black Mustard (mustard; [3]): 0
Plant response rating, Black Mustard (mustard; [5]): 30
Plant response rating, Bermudagrass (bermudagrass; [3]): 20
Plant response rating, Bermudagrass (bermudagrass; [4]): 60
Plant response rating, Bermudagrass (bermudagrass; [5]): 60
Plant response rating, Bindweed, Field (field bindweed; [3]): 10
Plant response rating, Bindweed, Field (field bindweed; [4]): 10
Plant response rating, Bindweed, Field (field bindweed; [5]): 20
